Laboratory results taken from patent US10287337B2 (priority 2015, dated 2019).
Read-outs that look alike come from different tables or passages of the source.

Tests used:
[1] = test system: electrocutaneous stimulation-induced facial pain in rats; test: Electrocutaneous stimulation-induced facial inflammatory pain model; assay type: in vivo, rat; settings: intranasal
Method: In humans electrocutaneous stimulation elicited vasodilatation in the cheek (Vassend and Knardahl, 2005). […] Baseline facial thermal thresholds of rats (Sprague-Dawley, male, 260-300 g) were assessed on the rats' depilated left cheek and then each rat received 1 hour of electrocutaneous facial stimulation using WPI ISOSTIM™ A320 (World Precision Instruments, 0.4 mA intensity, 10 ms duration, Is inter-pulse interval). 24 hr after stimulation (Day 1), each rat's thermal pain threshold mediated by A-delta fiber and C fiber were separately measured using a thermal nociception lamp (variable voltage regulator model: No. SC-3M) to evoke A-delta and C nerve fiber-mediated cheek withdrawal. […] Thermal thresholds were measured once every 0.5 hour for the first 3 hours post-I.N. dosing, and then 4, 5, and 6 hour post-I.N. dosing. Voltage regulator set to 90V for A-delta fiber testing and 45V for C fiber testing. Cutoff set at 6 seconds and 20 seconds for A-delta fiber and C fiber testing, respectively.

[2] = biological target: T1, human calcitonin CGRP1 (CGRP1) membrane (Homo sapiens, UniProt O60894+Q16602); assay type: binding; settings: for binding affinity on CGRP receptors (in words): comparison between peptides
T1 construct: purchased Perkin Elmer (Waltham, Mass.)
Method: CGRP1 membrane was homogenized in the assay buffer (50 mM Tris-HCl pH 7.4, 5 mM MgCl2, 0.5% BSA, 0.05% Tween20). […] After 1 h of incubation, at room temperature, samples were filtered, using a Tomtec cell harvester, through glass fiber filters that had been presoaked in 0.05% polyethyleneimine and washed with the cold Tris buffer (50 mM Tris-HCl pH7.4). Filters were counted on a betaplate reader (Wallac).

[3] = test system: UVB radiation-induced inflammatory pain in rat cheek; assay type: in vivo; settings: topical application 10 μM, 100 μL, 2% propylene glycol, UVB-irradiated cheek
[4] = test system: paw incision-induced postoperative pain in rats; test: Paw incision-induced postoperative pain model, mechanical pain threshold; assay type: in vivo, rat
Description: A clinically applicable incision model in rodents is a hind-paw deep incision that produces a robust mechanical and cold allodynia, and thermal hyperalgesia (Pogatzki et al., 2003; Xu and Brennan, 2010). Male rats (Sprague-Dawley, 250-260 g, Harlan) used (n=8/group) were anesthetized with 2.5% isoflurane and the skin of the dorsolateral hindpaw surface were prepped by first depilitating it (using Nair), followed by rinsing and application of povidone-iodine. Afterwards, a 5 mm longitudinal incision was made near the hairy/glabrous border though the skin and subcutaneous fascia of the left hindpaw as described by (Pogatzki et al., 2003; Xu and Brennan, 2010). After briefly elevating the underlying muscle with curved forceps the wound is closed with a single nylon (8-0) mattress stitch.
Pre-surgery (baseline) and 24 hours after the surgery, the mechanical allodynia of the incision hindpaws of the rats were assessed using von Frey monofilaments with an up/down procedure (Chaplan et al., 1994). […] Mechanical pain thresholds were measured at 0.5, 1, 2, 3, 4, 5 and 6 hours post-intradermal injection.

[5] = test system: UVB radiation-induced inflammatory pain in rat cheek; assay type: in vivo; settings: topical application 10 μM, 100 μL
Description: Ultraviolet B (UVB) radiation causes cutaneous inflammation in humans and animals. One important clinical consequence of UVB-induced inflammation is causing hyperalgesia. Changes in thermal sensitivities in the area of primary UVB irradiation are well documented both in humans and in the animal models (Zhang et al., 2009). […] This model provides an experimental model of post radiation pain and can mimic one type of burn pain. To determine the magnitude of anti-inflammatory pain effects for a given drug transdermally delivered by way of microneedle delivery, the depilated rat's cheeks were exposed to an inflammatory dosage of Ultraviolet B radiation (Zhang et al., 2009).
With the skin of a rat's cheek was stretched, the circular (8 mm in diameter) fiberglass applicator of the UV Curing Device (Dymax Bluewave 200) was applied to the center of the rat's cheek. To produce an appropriate inflammation, a total dose of 1200 mJ/cm^2 UVB was administered to one rat cheek for 25 seconds. The same procedure was performed on the rat's contralateral cheek. Upon completion of UVB irradiation, all rats were returned to their home cages and were assessed for thermal pain between 24-48 hours later. […] The rats were lightly anesthetized with urethane (800 mg/kg, IP) and heat-induced withdrawal latencies of the cheeks (an indicator of C fiber stimulation responses) were measured. […] A sham control group (n=6) were only completely depilated and cleansed with ethanol wipes but without UVB challenge.
After removing patches, cheek withdrawal latencies induced by continuous and noxious heat were assessed at different time points from the end of the 20 minute treatment period up to 3 hours post treatment.
The patches were applied on the rat cheek for 20 minutes. After removing the patches, cheek withdrawal latencies induced by continuous and noxious heat were assessed at different time points up to 3 hours as described above.
(§1) After removing the patches, cheek withdrawal latencies induced by continuous and noxious heat were assessed at different time points up to 3 hours.
Accordingly, anti-inflammatory effects were examined 48 hours post-UVB and after the application of the patch. Twelve rats were subjected to UVB radiation (1200 mJ/cm^2). […] The patch was placed over the inflamed area for a period of 20 minutes. […] Sham control group rats (n=6) were completely depilated and cleansed with ethanol wipes but without any other treatment. The rats were returned to their home cages, and assessed for thermal pain responses 48 hours later. As usual, cheek withdrawal latencies in response to continuous and noxious heat were recorded over a 3-hour time period (hours 49-51 post-UVB).
as §1
After removing the patches, cheek withdrawal latencies induced by continuous and noxious heat were assessed at different time points from 20 minutes post administration up to 3 hours.
Because UVB-irradiation may increase skin permeability, a topical formulation, but not limited to the sample shown here, was made.

[6] = intradermal injection 1 μM, 50 μL, 24 hours after incision
[7] = prevention: injection 1 μM, 50 μL just prior to closing of the wound

T1 sequence (O60894 27-148): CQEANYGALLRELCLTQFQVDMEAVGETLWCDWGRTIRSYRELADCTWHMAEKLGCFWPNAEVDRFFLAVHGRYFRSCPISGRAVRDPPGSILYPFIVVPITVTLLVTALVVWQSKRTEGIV
T1 sequence (Q16602 23-461): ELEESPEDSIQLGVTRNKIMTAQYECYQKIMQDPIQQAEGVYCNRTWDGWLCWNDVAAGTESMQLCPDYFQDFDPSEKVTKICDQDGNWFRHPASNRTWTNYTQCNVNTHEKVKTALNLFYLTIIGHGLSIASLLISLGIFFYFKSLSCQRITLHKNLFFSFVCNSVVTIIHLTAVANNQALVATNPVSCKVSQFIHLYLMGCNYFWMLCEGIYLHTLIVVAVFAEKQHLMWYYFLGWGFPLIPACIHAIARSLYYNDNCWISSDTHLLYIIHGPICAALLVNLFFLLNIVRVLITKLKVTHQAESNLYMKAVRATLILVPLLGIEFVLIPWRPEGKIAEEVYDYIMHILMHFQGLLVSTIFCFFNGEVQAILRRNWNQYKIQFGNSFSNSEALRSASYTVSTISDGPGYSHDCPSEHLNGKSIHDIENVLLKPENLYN

H-NFVPTNVGPFAF-NH2 [AFA-peptide 3, NH2-N-F-V-P-T-N-V-G-P-F-A-F-CONH2]
A-delta fiber-mediated pain withdrawal latencies vs vehicle (in words) ([1]; 1 μM): significantly prolonged | C-fiber-mediated pain withdrawal latencies vs vehicle (in words) ([1]; 1 μM): even more substantial and significantly prolonged | thermal pain thresholds in naïve, non-facial stimulation rats (in words) ([1]; data not shown): did not alter thermal pain thresholds | Hill slope ([2]; 0.24 nM [125I]-CGRP, Mean±SD): 1.20 ± 0.02 | binding affinity on CGRP receptors (in words) [2]: higher affinities than conventional CGRP 27-37 and CGRP 8-37 | binding affinity on CGRP receptors (in words) ([2]; listed as Peptide-3): most potent in binding assay | A-delta-fiber-mediated responses (in words) [3]: little effects | duration of action [4, 6]: around 6 hours | mechanical pain threshold (in words) [4, 6]: significantly increased | duration of action [4, 7]: 24 h | mechanical pain thresholds vs vehicle (in words) [4, 7]: significantly increased mechanical pain thresholds | onset of analgesic effect post treatment ([4]; prevention: injection just prior to closing of the wound, second timepoint assessed): 1 h | duration of action [5]: 2 h | C-fiber-mediated thermal pain thresholds vs vehicle (in words) ([5]; 2% propylene glycol, UVB-irradiated cheek): significant and substantial increase
